One may read the melting point as the temperature of the solid-liquid transition.

Structures are written as SMILES.

The compound `CCc1ccc(Cl)c(CC)c1NS(=O)(=O)c1cc(S(=O)(=O)Nc2c(CC)ccc(Cl)c2CC)c2cc(O)ccc2c1` gave a melting point of 142 to 144 °C. The result for `CCCCS(=O)(=O)Nc1ccccc1COc1cccc2cccnc12` reads 88 to 89 °C; that for `CNC(=S)N(C)c1nccs1`, 68 to 69 °C; that for `COc1ccc(-c2noc3c2CCC(C(=O)O)CC3)cc1` (stereo unspecified), 147 to 148 °C. With `Cc1ccc(OCC(=O)O)c(C(=O)NCc2cccc([N+](=O)[O-])c2)c1` the figure was 193 to 194 °C; with `COC1(c2cc(F)cc(Sc3ccc4c(c3)CCC(=S)N4C)c2)CCOCC1`, 134 °C. On to `Cc1nccn1Cc1nc2ccccc2n1-c1ccccc1`, for which the melting point is 124 to 126 °C.

With `C=CC(=O)OCCNC(=O)C(C)ON(C(C(C)(C)C)P(=O)(OCC)OCC)C(C)(C)C` (stereo unspecified), the melting point is 95 to 98 °C. With `CCCCc1ccc2nc(NC(=O)c3csc(CNC(=O)OC(C)(C)C)n3)sc2c1` the figure was 143 to 144 °C; with `N#CC1CN1C(=O)NC(=O)CC1CCCCC1` (stereo unspecified), 142 to 144 °C; with `CCCCc1cc(OCCc2ccc(C(=O)O)cc2)c2ccccc2n1`, 205 °C. The result for `Cn1c([N+](=O)[O-])cnc1-c1nc(CCl)cs1` reads 160 to 162 °C.

`COC(=O)C(C)N(C(=O)CCl)c1c(C)cccc1Cl` (stereo unspecified) came in with a melting point of 75 to 78 °C. In turn, `COc1ccc(-c2nc(-c3ccc[nH]3)n(CCCBr)c2-c2ccc(OC)cc2)cc1` registered a melting point of 97 °C.

`OC1CSC(Oc2ccc(-c3ccsc3)nc2)C(O)C1O` (stereo unspecified) gave a melting point of 154 °C. With `CCCCC=C1SC(=O)N(CCCCOc2cccn3ccnc23)C1=O` the figure was 64 to 65 °C. The result for `Cc1nc2cnccc2n1-c1ccc(Cn2nnc3ccccc32)cc1` reads 126 to 127 °C. With `COCCNS(=O)(=O)c1ccc(C(CC2CCCC2)C(=O)Nc2nc3ccc(OC)nc3s2)cc1` (stereo unspecified) the figure was 209 to 211 °C; with `CC(=O)N1C(=O)C(C(=O)c2cccs2)c2cc(Cl)ccc21` (stereo unspecified), 168 to 170 °C; with `COCCC(=O)N[C@H]1CC[C@H](CCN2CCN(c3nc(C)cc4occc34)CC2)CC1`, 158 °C. The compound `CCc1cn(C2CC(O)C(CNC(=O)c3ccccc3)O2)c(=O)[nH]c1=O` (stereo unspecified) gave a melting point of 246 to 247 °C. With `CCC(=O)COc1ccc(CC2SC(=O)N(C(c3ccccc3)(c3ccccc3)c3ccccc3)C2=O)cc1` (stereo unspecified) the figure was 155 to 156 °C; with `Cn1c(SCC(=O)C23CC4CC(CC(C4)C2)C3)nnc1C1CC1`, 96 to 97.5 °C. With `CNc1nccn2c(Br)cnc12` the figure was 139 °C; with `Cc1ccc(S(=O)(=O)N2CCNC2=Nc2ccccc2)cc1`, 174 to 177 °C; with `N#Cc1nn(-c2c(Cl)cc(C(F)(F)F)cc2Cl)c(NCc2ccncc2)c1SCF`, 204 °C. The result for `CCCCCCCCCCCCCCc1ccc(CCCCCC)c(OCC(O)CO)c1` (stereo unspecified) reads 46 to 47 °C; that for `Cc1cccc(-c2[nH]c(C(C)C)nc2-c2ccc(F)c(-c3cc[nH]c3)c2)n1`, 106 to 110 °C; that for `COP(=O)(OC)c1cc(O)c2c(=O)cc(-c3ccccc3)oc2c1`, 219 °C. The compound `Clc1ccc(COc2ccc(Cl)cc2C(c2ccccc2)n2ccnc2)c(Cl)c1` (stereo unspecified) had a melting point of 132 to 134 °C. With `CCN1c2ccc(Cl)cc2C=C(C(=O)O)C1C(F)(F)F` (stereo unspecified) the figure was 201 to 202 °C; with `CC(C)(C)[Si](C)(C)OCC1(CO[Si](C)(C)C(C)(C)C)COc2cc(I)cc3c(=O)c(C(=O)NCc4ccc(Cl)cc4)cn1c23`, 158 to 159 °C.

Compound `CC12CCC3c4ccc(O)cc4CC(Sc4ccc(Br)cc4)C3C1CCC2O` (stereo unspecified) had a melting point of 165 to 166 °C.

`Cc1oc(-c2ccccc2)nc1CCc1ccc(CCCC2OC(=O)NC2=O)cc1` (stereo unspecified) returned a melting point of 112 to 113 °C.

`CCCn1c(=O)c(-c2c(Cl)cccc2Cl)cc2cnc(N)nc21` displayed a melting point of 196 to 197 °C.

As to `COc1cccc(C(=O)c2ccc(F)cc2F)c1`, the melting point was in the range of 50 to 52 °C.

The compound `CCNC(=O)c1cc(Br)sc1[Si](C)(C)C` gave a melting point of 96 to 98 °C. The result for `O=C(O)c1ccc(NCCCCCCOc2ccc3ccccc3c2)cc1` reads 157 to 159 °C; that for `O=C(NC(Cc1ccc(OCc2ccc(Cl)cc2)cc1)C(=O)O)c1cn2ccc(-c3ccc(Cl)cc3)cc2n1` (stereo unspecified), 261 °C. The result for `CC(=NOCC(=O)O)c1ccc(Cl)cc1` reads 116 °C; that for `COCCOc1cc2ncnc(NC3=CC(=O)C(Oc4ccc(-n5ccnc5)cc4)=CC3=O)c2cc1OC`, 124 to 132 °C; that for `CCC1C(=O)N2CCCC(C(=O)OC(C)(C)C)N2C1=O` (stereo unspecified), 93 to 95 °C. The result for `COc1ccc(C(=O)Cc2ncccc2C(=O)O)cc1` reads 158 to 163 °C. As for `CC(C)[C@H](NC(=O)CN1CCN(CC(=O)O)C1=O)C(=O)N1CCC[C@H]1C(=O)N[C@H](C(=O)C(F)(F)F)C(C)C`, the melting point was in the range of 177 to 178 °C. With `C[C@@H]1CCC[C@H](C)N1CCNc1ccnc2cc(Cl)ccc12` the figure was 138 to 139 °C; with `COc1ccc(CNc2nc[nH]n2)cc1OC1CCCC1`, 203 to 204 °C. The result for `CCCCCCOc1ccc(-c2nc(-c3ccc(OCCCCCC)cc3O)nc(-c3c(C)cc(C)cc3C)n2)c(O)c1` reads 140 to 142 °C; that for `NS(=O)(=O)c1ccccc1Cn1cncn1`, 128 to 131 °C.

Consider `CN(C)CCCOc1ccc2c(c1)C(c1ccccc1)CC(=O)N2` (stereo unspecified), for which the melting point is 134 to 136 °C. The result for `O=C(O)C(=O)c1ccc(OCCCC(=O)c2ccc3ccccc3c2)cc1` reads 133 to 135 °C. With `CCc1cc2c(c(Sc3ccccc3)cc(=O)n2Cc2ccc(-c3ccccc3-c3nnn(C(c4ccccc4)(c4ccccc4)c4ccccc4)n3)cc2)c(CC)n1` the figure was 156 to 158 °C.

For `O=C(O)C1=Cc2cc(C#Cc3ccccc3)ccc2OC1C(F)(F)F` (stereo unspecified), the melting point is 240 to 241 °C.

`COc1cc2c(cc1Br)C1=C(c3cccs3)C3CSCCN(C(C)(C)C)C(=O)C3N1CC2` (stereo unspecified) came in with a melting point of 233 to 235 °C.

`Nc1sc(/C=C/Cc2ccc(Cl)cc2)c(CN(C2CCCCC2)C2CCCCC2)c1C(=O)c1ccc(Cl)cc1` returned a melting point of 143 to 146 °C.

Compound `COC1(c2cc(F)cc(S(=O)(=O)c3ccc4c(c3)OCCC4=NO)c2)CCOCC1` had a melting point of 209 to 210 °C. The result for `CC(O)Cc1cc([N+](=O)[O-])cc(N)c1N` (stereo unspecified) reads 174 °C; that for `COc1cc(F)c(-c2cncc(OC3SCC(O)C(O)C3O)c2)c(F)c1` (stereo unspecified), 200 °C; that for `CCCCSC(=NC(=O)N(CCC)CCC)NC(=O)NC(C)(C)C`, 92 to 94 °C. `CCCc1c(C#N)ccc(NC(=NC#N)Nc2ccccc2Cl)c1O`: the melting point was in the range of 159 to 160 °C. The result for `CNC(=O)c1cccc(NC(=O)Cc2ccc(C)cc2)c1` reads 174 to 175 °C; that for `CSC1=Nc2ccccc2Cn2cccc21`, 148 to 150 °C.

For the origin of these results see a melting point compilation (Tetko et al.; mined from patent text by program, amines drawn as free bases though some values may be those of a salt).
